Test results: publication PMC6272127, “Synthesis, Antiproliferative Activity and Molecular Properties Predictions of Galloyl Derivatives” (Molecules, 2015)
In brackets after ≈: the same amount, converted by molar mass. Like-named read-outs stand apart in the source and are kept apart here.

Legend:
[1] = system: ten human tumor cell lines; assay: Anticancer assay in vitro (sulforhodamine B), statements over the panel of cell lines; assay type: cell-based; conditions: for cytotoxic efficacy: OVCAR-3 and K-562 cell lines
Experimental: (§1) The experiments were performed in triplicate.

786-0 (renal) = assay: cells; assay type: cell-based; conditions: for TGI: 786-0, total growth inhibition, 48 h; for GI50: SRB
Experimental: as §1

[2] = system: NCI-ADR/RES (breast expressing the multiple drug resistance phenotype); assay: cells; assay type: cell-based; conditions: for GI50: SRB
Experimental: as §1

K-562 (leukemia) = assay: cells; assay type: cell-based; conditions: for GI50: K-562, 48 h, SRB
Experimental: as §1

[3] = system: NCI-H460 (lung, non-small cells); assay: cells; assay type: cell-based; conditions: for GI50: SRB; for TGI: NCI-H460, total growth inhibition, 48 h
Experimental: as §1

PC-3 (prostate) = assay: cells; assay type: cell-based; conditions: for GI50: PC-3, 48 h, SRB; for TGI: PC-3, total growth inhibition, 48 h
Experimental: as §1

OVCAR-3 (ovarian) = assay: Anticancer assay in vitro (sulforhodamine B), OVCAR-3; assay type: cell-based; conditions: for TGI: OVCAR-3, total growth inhibition, 48 h; for GI50: SRB
Experimental: as §1

U251 (glioma, CNS) = assay: cells; conditions: for TGI: U251, total growth inhibition, 48 h
Experimental: The GI50 values (growth inhibitory activity) (Table 1) refer to the drug concentration that produces a 50% reduction of cellular growth compared with the untreated control cells. The TGI (cytostatic activity) and LC50 (cytotoxic activity) values (Table 2) refer to the drug concentration required for total growth inhibition and killing 50% of the cells, respectively.
The synthesized compounds were assessed in the following ten human tumor cell lines from various tissues kindly provide by the National Cancer Institute (Frederick, MD, USA): U251 (glioma, CNS), MCF-7 (breast), NCI-ADR/RES (breast expressing the multiple drug resistance phenotype), 786-0 (renal), NCI-H460 (lung, non-small cells), PC-3 (prostate), OVCAR-3 (ovarian), HT-29 (colon), K-562 (leukemia) and HaCaT (keratinocytes). Stock cultures were grown in media containing 5 mL of RPMI 1640 (Gibco BRL) supplemented with 5% fetal bovine serum. Gentamicin ([…]) was added to the experimental cultures. Cells in 96-well plates (100 µL cells/well) were exposed to sample concentrations in DMSO/RPMI (0.25, 2.5, 25, and 250 µg/mL) at 37 °C and 5% CO2 for 48 h. […] Next, cells were fixed with 50% trichloroacetic acid, and cell proliferation was determined by spectrophotometric quantification (540 nm) of cellular protein content employing the sulforhodamine B assay. Doxorubicin (0.025–25 µg/mL) was used as a positive control. Three measurements were obtained: first at time point zero (T0, at the beginning of incubation) and then 48 h post-incubation for both the compound-free (C) and tested (T) cells. Cell proliferation was determined using the equation 100 × [(T − T0)/C − T0]. A cytostatic effect was observed when T ≥ T0, while a cytocidal effect occurred when T < T0. The experiments were performed in triplicate.

HT-29 (colon) = assay: Anticancer assay in vitro (sulforhodamine B), HT-29; assay type: cell-based; conditions: for TGI: HT-29, total growth inhibition, 48 h; for GI50: SRB
Experimental: as §1

MCF-7 (breast) = assay: Anticancer assay in vitro (sulforhodamine B), MCF-7; assay type: cell-based; conditions: for GI50: MCF-7, 48 h, SRB
Experimental: as §1

HaCaT (keratinocytes) = assay: Anticancer assay in vitro (sulforhodamine B), HaCaT; assay type: cell-based; conditions: 48 h; for GI50: SRB; for TGI: total growth inhibition
Experimental: as §1

[4] = Homo sapiens, NCI/ADR-RES, 48 h
[5] = NCI/ADR-RES, total growth inhibition, 48 h
[6] = K-562, total growth inhibition, 48 h
[7] = MCF-7, total growth inhibition, 48 h

COC(=O)c1cc(O)c(O)c(O)c1 [Compound 2, Methyl gallate]
TGI values over the cell lines tested ([1]; range over all human tumor cell lines): 1.59 to 16.74 µM | TGI (786-0 (renal)): 8.62 µg/mL (≈ 46.8 µM) | CC50 (786-0 (renal); Homo sapiens, 786-0, 48 h, read-out: LC50): 31.4 µg/mL (≈ 170 µM) | GI50 (786-0 (renal); Homo sapiens, 786-0, 48 h): 0.65 µM | CC50 ([2]; Homo sapiens, NCI/ADR-RES, 48 h, read-out: LC50): 30.3 µg/mL | GI50 [2, 4]: 0.12 µM | TGI [2, 5]: 3.62 µg/mL | GI50 (K-562 (leukemia); Homo sapiens, K562): 0.31 µM | TGI (K-562 (leukemia); [6]): 5.67 µg/mL | CC50 ([3]; Homo sapiens, NCI-H460, 48 h, read-out: LC50): 34.9 µg/mL (≈ 190 µM) | GI50 ([3]; Homo sapiens, NCI-H460, 48 h): 0.13 µM | TGI [3]: 7.97 µg/mL (≈ 43.3 µM) | GI50 (PC-3 (prostate); Homo sapiens): 0.57 µM | TGI (PC-3 (prostate)): 13.10 µg/mL (≈ 71.1 µM) | CC50 (OVCAR-3 (ovarian); Homo sapiens, OVCAR-3, 48 h, read-out: LC50): 33.7 µg/mL | TGI (OVCAR-3 (ovarian)): 1.59 µg/mL (≈ 8.63 µM) | GI50 (U251 (glioma, CNS); Homo sapiens, U-251, 48 h): 0.16 µM | CC50 (U251 (glioma, CNS); Homo sapiens, U-251, 48 h, read-out: LC50): 29.2 µg/mL (≈ 159 µM) | TGI (U251 (glioma, CNS)): 4.10 µg/mL (≈ 22.3 µM) | TGI (HT-29 (colon)): 8.52 µg/mL (≈ 46.3 µM) | CC50 (HT-29 (colon); Homo sapiens, HT-29, 48 h, read-out: LC50): 30.6 µg/mL (≈ 166 µM) | GI50 (HT-29 (colon); Homo sapiens, HT-29, 48 h): 0.49 µM | GI50 (MCF-7 (breast); Homo sapiens, MCF7): 0.16 µM | TGI (MCF-7 (breast); [7]): 5.12 µg/mL | GI50 (HaCaT (keratinocytes); Homo sapiens): 0.26 µM | TGI (HaCaT (keratinocytes)): 16.74 µg/mL (≈ 90.9 µM)

Galloyl-2-methylthio-1,3,4-oxadiazole [Compound 10]
GI50 (786-0 (renal); 786-0, 48 h): 9.2 µM | TGI (786-0 (renal)): 29.40 µg/mL | CC50 [2]: 19.7 µM | LC50 [2]: (19.65) µg/mL | TGI ([2]; NCI/ADR-RES): 2.33 µM | GI50 ([2]; NCI/ADR-RES, 48 h): 0.17 µM | TGI [2, 5]: 2.33 µg/mL | CC50 (K-562 (leukemia)): 20.2 µM | LC50 (K-562 (leukemia)): (20.20) µg/mL | GI50 (K-562 (leukemia)): 0.6 µM | TGI (K-562 (leukemia); K-562, as printed in the text): 3.70 µM | TGI (K-562 (leukemia); [6]): 3.70 µg/mL | LC50 [3]: (65.78) µg/mL | GI50 ([3]; NCI-H460, 48 h): 9.44 µM | TGI [3]: 29.52 µg/mL | LC50 (PC-3 (prostate)): (69.30) µg/mL | GI50 (PC-3 (prostate)): 7.43 µM | TGI (PC-3 (prostate)): 28.45 µg/mL | CC50 (OVCAR-3 (ovarian)): 17.3 µM | LC50 (OVCAR-3 (ovarian)): (17.34) µg/mL | TGI (OVCAR-3 (ovarian)): 2.38 µg/mL | LC50 (U251 (glioma, CNS)): (30.43) µg/mL | GI50 (U251 (glioma, CNS); U251, 48 h, SRB): 5.2 µM | TGI (U251 (glioma, CNS)): 16.40 µg/mL | LC50 (HT-29 (colon)): (60.32) µg/mL | GI50 (HT-29 (colon); HT-29, 48 h): 2.77 µM | TGI (HT-29 (colon)): 17.66 µg/mL | CC50 (MCF-7 (breast)): 20.2 µM | LC50 (MCF-7 (breast)): (20.24) µg/mL | GI50 (MCF-7 (breast)): 0.34 µM | TGI (MCF-7 (breast); MCF-7, as printed in the text): 3.20 µM | TGI (MCF-7 (breast); [7]): 3.20 µg/mL | GI50 (HaCaT (keratinocytes)): 2.5 µM | TGI (HaCaT (keratinocytes)): 18.00 µg/mL

O=C(N/N=C/c1ccc([N+](=O)[O-])cc1)c1cc(O)c(O)c(O)c1 [Compound 6, N'-(4-Nitrobenzylidene)galloyl hydrazide]
cytotoxic efficacy [1]: did not demonstrate cytotoxic efficacy | GI50 (786-0 (renal); Homo sapiens, 786-0, 48 h): 7.6 µM | GI50 [2, 4]: 8.46 µM | GI50 (PC-3 (prostate); Homo sapiens): 14 µM | TGI (PC-3 (prostate)): 84.67 µg/mL (≈ 267 µM) | GI50 (OVCAR-3 (ovarian); Homo sapiens, OVCAR-3, 48 h): 5.91 µM | GI50 (U251 (glioma, CNS); Homo sapiens, U-251, 48 h): 5.12 µM | GI50 (HaCaT (keratinocytes); Homo sapiens): 31.6 µM

COc1ccc(/C=N/NC(=O)c2cc(O)c(O)c(O)c2)cc1 [Compound 7, N'-(4-Methoxybenzylidene)galloyl hydrazide]
cytotoxic efficacy [1]: did not demonstrate cytotoxic efficacy | GI50 (786-0 (renal); Homo sapiens, 786-0, 48 h): 18.9 µM | GI50 [2, 4]: 11.3 µM | TGI [2, 5]: 66.56 µg/mL | GI50 (K-562 (leukemia); Homo sapiens, K562): 8.93 µM | TGI (K-562 (leukemia); [6]): 41.76 µg/mL | GI50 ([3]; Homo sapiens, NCI-H460, 48 h): 41.1 µM | GI50 (PC-3 (prostate); Homo sapiens): 19.6 µM | GI50 (OVCAR-3 (ovarian); Homo sapiens, OVCAR-3, 48 h): 5.98 µM | GI50 (U251 (glioma, CNS); Homo sapiens, U-251, 48 h): 9.14 µM | TGI (U251 (glioma, CNS)): 64.22 µg/mL (≈ 212 µM) | GI50 (HT-29 (colon); Homo sapiens, HT-29, 48 h): 25.1 µM | GI50 (MCF-7 (breast); Homo sapiens, MCF7): 15.7 µM | GI50 (HaCaT (keratinocytes); Homo sapiens): 18.1 µM

O=C(N/N=C/c1ccc(O)cc1)c1cc(O)c(O)c(O)c1 [Compound 8, N'-(4-Hydroxybenzylidene)galloyl hydrazide]
GI50 (786-0 (renal); Homo sapiens, 786-0, 48 h): 26.8 µM | GI50 (K-562 (leukemia); Homo sapiens, K562): 9.17 µM | GI50 ([3]; Homo sapiens, NCI-H460, 48 h): 9.38 µM | GI50 (OVCAR-3 (ovarian); Homo sapiens, OVCAR-3, 48 h): 1.35 µM | GI50 (U251 (glioma, CNS); Homo sapiens, U-251, 48 h): 6.6 µM | TGI (U251 (glioma, CNS)): 26.07 µg/mL (≈ 90.4 µM) | GI50 (HaCaT (keratinocytes); Homo sapiens): 8.72 µM
